In ChEMBL document CHEMBL1123141, “N-[2-hydroxy-5-[2-(methylamino)ethyl]phenyl]methanesulfonamide. A potent agonist which releases intracellular calcium by activation of alpha 1-adrenoceptors” (J Med Chem, 1985):

How the values were obtained:
[1] = target: T1, Alpha-1A adrenergic receptor (Homo sapiens) (UniProt P35348); test: Effect of 1 uM external [Ca2+] on the contractions induced by compound in the canine saphenous vein at EC50 concentration and expressed as percent of control response in […] Ca+; absolute concentration 5.0 +/- 1.5 X 10e-7 M; format: functional, tissue-based; settings: Canis lupus familiaris
T1 sequence (whole entry): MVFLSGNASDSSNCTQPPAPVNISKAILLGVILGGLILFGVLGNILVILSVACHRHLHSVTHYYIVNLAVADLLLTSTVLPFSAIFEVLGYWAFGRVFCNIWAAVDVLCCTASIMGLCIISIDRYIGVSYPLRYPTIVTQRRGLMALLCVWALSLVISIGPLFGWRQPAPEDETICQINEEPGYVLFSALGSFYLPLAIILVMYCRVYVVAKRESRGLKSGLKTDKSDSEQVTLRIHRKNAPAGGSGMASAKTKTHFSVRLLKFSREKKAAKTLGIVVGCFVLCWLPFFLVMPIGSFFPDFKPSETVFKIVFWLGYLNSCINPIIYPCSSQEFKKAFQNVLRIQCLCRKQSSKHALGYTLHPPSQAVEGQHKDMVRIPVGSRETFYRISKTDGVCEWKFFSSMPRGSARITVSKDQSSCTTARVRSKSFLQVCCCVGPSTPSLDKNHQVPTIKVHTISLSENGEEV

[2] = target: T1, Alpha-1A adrenergic receptor (Homo sapiens); test: Effect of 1 uM external [Ca2+] on the contractions induced by compound in the canine saphenous vein at EC25 concentration and expressed as percent of control response in […] Ca+; absolute concentration 1.5 +/-0.7 X 10e-7 M; format: functional, tissue-based; settings: Canis lupus familiaris
[3] = Dissociation constant against constrictor response to the compound blocked competitively by phentolamine for alpha-mediated events; format: functional
[4] = target: T1, Alpha-1A adrenergic receptor (Homo sapiens); test: Effect of 1 uM external [Ca2+] on the contractions induced by compound in the canine saphenous vein at EC100 concentration and expressed as percent of control response in […] Ca+; absolute concentration 5.0 X 10e-5 M; format: functional, tissue-based; settings: Canis lupus familiaris
[5] = target: T1, Alpha-1A adrenergic receptor (Homo sapiens); test: Effect of zero uM external [Ca2+] on the contractions induced by compound in the canine saphenous vein at EC100 concentration experimented in the presence of 2 mM EGTA and expressed as percent of control response in […] Ca+ physiological saline; absolute concentration 5.0 X 10e-5 M; format: functional, tissue-based; settings: Canis lupus familiaris
[6] = target: T1, Alpha-1A adrenergic receptor (Homo sapiens); test: Effect of zero external [Ca2+] on the contractions induced by acompound in the canine saphenous vein at EC50 concentration experimented in the presence of 2 mM EGTA and expressed as percent of control response in […] Ca+ physiological saline; abso; format: functional, tissue-based; settings: Canis lupus familiaris
[7] = target: T1, Alpha-1A adrenergic receptor (Homo sapiens); test: Effect of zero external [Ca2+] on the contractions induced by compound in the canine saphenous vein in the presence of 2 mM EGTA and expressed as percent of control response in […] Ca+ physiological saline; absolute concentration 1.5 +/-0.7 X 10e-; format: functional, tissue-based; settings: Canis lupus familiaris

CNCCc1ccc(O)c(NS(C)(=O)=O)c1
Control response [1]: 37.6% | Control response [2]: 8.1% | Ki [3]: < 20 nM | Control response [4]: 78.3% | Control response [5]: 37.9% | Control response [6]: 20.2% | Control response [7]: 6%
